Key:
[1] = test system: ASIC3 currents in CHO cells co-expressing ASIC3 and PAR2; assay: Whole-cell patch clamp of proton-gated currents (I pH 6.6) in CHO cells co-expressing ASIC3 and PAR2; type: cell-based, Chinese hamster
Procedure: (§1) ASIC3, ASIC1a, ASIC1b, ASIC2b, and PAR2 complementary DNAs (cDNAs) were used for heterologous expression in CHO cells as described previously (Wang et al., 2013). In brief, CHO cells were cultured at 37 °C in a humidified atmosphere of 5% CO2 and […] and passaged twice a week. Transient transfection of CHO cells was performed using HilyMax liposome transfection reagent (Dojindo Laboratories). CHO cells were maintained in F-12 Nutrient Mixture (added 1.176 g of NaHCO3/L medium) supplemented with 10% fetal bovine serum and 1% gluta-MAXTM-1 (100×; Invitrogen). When ASIC3 and PAR2 cDNAs were co-transfected, the ratio was kept at 1:1. All plasmids used contained, in addition to the desired ASIC3 cDNA, the coding sequence for enhanced green fluorescent protein to aid identification of transfected cells. Electrophysiological measurements were performed 24–48 h after transfection.
(§2) Whole-cell patch clamp and voltage clamp recordings were carried out at room temperature (22–25 °C) using a MultiClamp-700B amplifier and Digidata-1440A A/D converter (Axon Instruments, CA, USA). Recording pipettes were pulled using a Sutter P-97 puller (Sutter Instruments, CA, USA). The micropipettes were filled with internal solution containing (mM) KCl 140, MgCl2 2.5, HEPES 10, EGTA 11, and ATP 5; its pH was adjusted to 7.2 with KOH, and osmolarity was adjusted to 310 mOsm/L with sucrose. Cells were bathed in an external solution containing (mM) NaCl 150, KCl 5, CaCl2 2.5, MgCl2 2, HEPES 10, D-glucose 10; its osmolarity was adjusted to 330 mOsm/L with sucrose and its pH to 7.4. The resistance of the recording pipette was in the range of 3–6 MΩ. A small patch of membrane underneath the tip of the pipette was aspirated to form a giga seal, and then, a negative pressure was applied to rupture it, thus establishing a whole-cell configuration. The series resistance was compensated for by 70–80%. The adjustment of capacitance compensation was also done before recording the membrane currents. The membrane voltage was maintained at −60 mV in all voltage clamp experiments unless otherwise specified. Current clamp recordings were obtained by switching to current clamp mode after a stable whole-cell configuration was formed in voltage clamp mode. Only cells with a stable resting membrane potential (more negative than −50 mV) were used in the study. Signals were sampled at 10 to 50 kHz and filtered at 2 to 10 kHz, and the data were stored in compatible PC computer for off-online analysis using the pCLAMP 10 acquisition software (Axon Instruments, CA, USA).
Drugs purchased from Sigma and used in the experiments include hydrochloric acid, 2-furoyl-LIGRLO-NH2 (a PAR2-activating peptide (PAR2-AP)), trypsin, FSLLRY-NH2, APETx2, and capsazepine. Different pH values were configured with hydrochloric acid and external solution. All drugs were dissolved daily in the external solution just before use and held in a linear array of fused silica tubes (o.d./i.d. = 500 μm/200 μm) connected to a series of independent reservoirs. The application pipette tips were positioned ∼30 μm away from the recorded neurons. The application of each drug was driven by gravity and controlled by the corresponding valve, and rapid solution exchange could be achieved within about 100 ms by shifting the tubes horizontally with a PC-controlled micromanipulator. Cells were constantly bathed in normal external solution flowing from one tube connected to a larger reservoir between drug applications. In some experiments where GDP-β-S (Sigma), U-73122(Sigma), and GF109203X (RBI) were applied for intracellular dialysis through recording patch pipettes, they were dissolved in the internal solution before use. To ensure that the cell interior was perfused with the dialysis drug, there was at least a 30-min interval between the establishment of whole-cell access and the current measurement. […]

[2] = test system: ASIC3-like currents in rat DRG neurons; assay: Voltage clamp of proton-evoked ASIC3-like currents in acutely isolated rat DRG neurons; type: cell-based
Source text: (§3) The experimental protocol was approved by the animal research ethics committee of Hubei University of Science and Technology (No. 2016–67). All procedures conformed to international guidelines on the ethical use of animals, and every effort was made to minimize the number of animals used and their sufferings. Five- to 6-week-old Sprague–Dawley male rats were anesthetized with 7% chloral hydrate and then decapitated. The DRGs were taken out and transferred immediately into Dulbecco’s modified Eagle’s medium (DMEM, Sigma) at pH 7.4. After the removal of the surrounding connective tissues, the DRGs were minced with fine spring scissors and the ganglion fragments were placed in a flask containing 5 ml of DMEM in which trypsin (type II-S, Sigma) 0.5 mg/ml, collagenase (type I-A, Sigma) 1.0 mg/ml, and DNase (type IV, Sigma) 0.1 mg/ml had been dissolved and incubated at 35 °C in a shaking water bath for 25–30 min. Soybean trypsin inhibitor (type II-S, Sigma) 1.25 mg/ml was then added to stop trypsin digestion. The incubating solution was then replaced by external solution. Dissociated neurons were placed into a 35-mm Petri dish and kept for at least 1 h in normal external solution before the start of electrophysiological experiments. After plating of the DRG neurons, the neurons were used for experiments within 24 h. The neurons selected for electrophysiological experiment were 15–35 μm in diameter.
as §2, with “The membrane voltage was maintained at −60 mV in all voltage clamp experiments unless otherwise specified. Current clamp recordings were obtained by switching to current clamp mode after a stable whole-cell configuration was formed in voltage clamp mode. Only cells with a stable resting membrane potential (more negative than −50 mV) were used in the study. Signals were sampled at 10 to 50 kHz and filtered at 2 to 10 kHz, and the data were stored in compatible PC computer for off-online analysis using the pCLAMP 10 acquisition software (Axon Instruments, CA, USA).” left out
(§4) Drugs purchased from Sigma and used in the experiments include hydrochloric acid, 2-furoyl-LIGRLO-NH2 (a PAR2-activating peptide (PAR2-AP)), trypsin, FSLLRY-NH2, APETx2, and capsazepine. […] The application pipette tips were positioned ∼30 μm away from the recorded neurons. […]

[3] = test system: rat DRG neurons; assay: Current clamp of acidosis-evoked action potentials (spikes) in rat DRG neurons; type: cell-based; settings: APETx2 2 μM; pH 6.6 for 5 s; capsazepine 10 μM
Source text: as §3, with “Dissociated neurons were placed into a 35-mm Petri dish and kept for at least 1 h in normal external solution before the start of electrophysiological experiments. After plating of the DRG neurons, the neurons were used for experiments within 24 h. The neurons selected for electrophysiological experiment were 15–35 μm in diameter.” left out
as §4

[4] = test system: rats; assay: Nociceptive behavior (flinches) induced by intraplantar acetic acid in rats; type: in vivo, rat; settings: n = 10
Procedure: Rats were placed in a 30 × 30 × 30 cm Plexiglas chamber and allowed to habituate for at least 30 min before nociceptive behavior experiments. A blind experiment was carried out. Separate groups of rats were coded and pretreated with 20 μl capsazepine (100 μM) together with vehicle and different dosages of PAR2-AP, FSLLRY-NH2, or APETx2 in the ipsilateral hind paw before injection of acetic acid. […] And nociceptive behavior (that is, number of flinches) was counted over a 5-min period starting immediately after the injection.
We finally ascertain whether PAR2-AP facilitates pain-related behaviors through interacting with ASIC3 in vivo. Acetic acid (0.6%) was injected into the right hind paws of rats and measured the number of flinches that the animals spent licking and/or lifting the injected paw. Intraplantar injection of acetic acid elicits an intense flinch/shaking response which mainly occurred during 0–5 min after injection of acetic acid. […] However, the low dose (1 μg) of PAR2-AP had no effect on the acidosis-induced nocifensive behaviors (Bonferroni’s post hoc test, P > 0.1, n = 10). In addition, the exacerbating effect of 10 μg PAR2-AP on acidosis-induced nocifensive behaviors was blocked by co-administration of 20 μg FSLLRY-NH2, a selective PAR2 antagonist (Bonferroni’s post hoc test, P < 0.01, compared with 10 μg PAR2-AP alone, n = 10; Fig. 6a).

[5] = test system: ASIC3 currents in CHO cells expressing alone ASIC3, but not expressing PAR2; assay: Whole-cell patch clamp, CHO cells expressing ASIC3 alone (no PAR2); type: cell-based, Chinese hamster; settings: 10^−5 M; P > 0.1; n = 10
Procedure: as §1
Whole-cell patch clamp and voltage clamp recordings were carried out at room temperature (22–25 °C) using a MultiClamp-700B amplifier and Digidata-1440A A/D converter (Axon Instruments, CA, USA). […]
as §4

Q: How did the “PAR2-AP-induced increase of I pH 6.6 with GF109203X in the pipette solution” value ([1]; GF109203X 2 μM intracellular dialysis, PAR2-AP 10^−5 M for 1 min, n = 10) turn out when `CN(C)CCCn1cc(C2=C(c3c[nH]c4ccccc34)C(=O)NC2=O)c2ccccc21` [GF109203X] was run?
A: 3.2 ± 6.0%

Q: Which “PAR2-AP-induced increase of I pH 6.6 with H-89 in the pipette solution” value ([1]; H-89 10 μM intracellular dialysis, PAR2-AP 10^−5 M for 1 min, n = 10) does the source give for `O=S(=O)(NCCNC/C=C/c1ccc(Br)cc1)c1cccc2cnccc12` [H-89] here?
A: 15.3 ± 5.8%

Q: How did the “PAR2-AP-induced increase of I pH 6.6 with U-73122 in the pipette solution” value ([1]; U-73122 10 μM intracellular dialysis, PAR2-AP 10^−5 M for 1 min, n = 10) turn out when `COc1ccc2c(c1)CC[C@@H]1[C@@H]2CC[C@]2(C)[C@@H](NCCCCCCN3C(=O)C=CC3=O)CC[C@@H]12` [U-73122] was run?
A: 6.9 ± 2.8%

Q: What does the source list for APETx2?
A: effect on peak ASIC current (I pH 6.6) ([1]; APETx2 500 nM): inhibited the peak ASIC current; effect on sustained plateau current (I pH 6.6) ([1]; APETx2 500 nM): without affecting the sustained plateau; effect on proton-induced ASIC current (I pH 6.6) in DRG neurons ([2]; APETx2 2 μM, eight DRG neurons, capsazepine 10 μM): completely blocked; effect on acidosis-evoked spikes [3]: completely blocked; effect on acetic acid-induced nociceptive response ([4]; APETx2 20 μM, 20 μl intraplantar, P < 0.01): potently blocked; effect on increased pain behavior induced by 10 μg PAR2-AP ([4]; APETx2 20 μM, 20 μl intraplantar, P < 0.01 vs PAR2-AP): potently inhibited

Q: How did the “change of peak amplitude of I pH 6.6 after pretreatment with FSLLRY-NH2 alone” value ([1]; 10^−5 M) turn out when FSLLRY-NH2 was run?
A: ≤ 5%

Q: And the “PAR2-AP-induced increase of ASIC3 currents in cells pretreated with FSLLRY-NH2” value ([1]; PAR2-AP 10^−5 M + FSLLRY-NH2 10^−5 M, n = 10, P < 0.01 vs PAR2-AP alone)?
A: 7.3 ± 7.1%

Q: What about the “trypsin-induced increase of ASIC3 currents in cells pretreated with FSLLRY-NH2” value ([1]; trypsin 10^−5 M + FSLLRY-NH2 10^−5 M, n = 10) of the same molecule?
A: 8.4 ± 6.2%

Q: And the “effect of FSLLRY-NH2 on trypsin potentiation of ASIC currents in DRG neurons” value ([2]; FSLLRY-NH2 10^−5 M, trypsin 10^−5 M)?
A: inhibited

Q: What about the “increase of peak amplitude of I pH 6.6 in DRG neurons when PAR2-AP co-treated with FSLLRY-NH2” value ([2]; PAR2-AP 10^−5 M + FSLLRY-NH2 10^−5 M, capsazepine 10 μM, n = 9, P < 0.01 vs PAR2-AP alone) of the same molecule?
A: 9.3 ± 44%

Q: And the “effect on exacerbation of acidosis-induced nocifensive behaviors by 10 μg PAR2-AP” value ([4]; FSLLRY-NH2 20 μg co-administered, P < 0.01 vs 10 μg PAR2-AP alone)?
A: blocked

Q: Which results are given for “trypsin: protease, possible physiological ligand of PAR2; cleaves and activates PAR2”?
A: increase of peak amplitude of I pH 6.6 after pretreatment with agonist alone ([1]; 10^−5 M for 1 min, n = 10): 48.7 ± 8.3%; effect on I pH 6.6 in ASIC3-transfected CHO cells without PAR2 [5]: Neither PAR2-AP nor trypsin had an effect

— article PMC5534107, “Sensitization of ASIC3 by proteinase-activated receptor 2 signaling contributes to acidosis-induced nociception” (Journal of Neuroinflammation, 2017)
